Laboratory results reported in patent US20250228882A1, “ORALLY-BIOAVAILABLE NUCLEOSIDE ANALOGS” (Venatorx Pharmaceuticals, Inc., priority 2022, published 2025).

Assay: Bidirectional Caco-2 permeability assay
Assay type: in vitro ADME
Conditions: human, Caco-2
Protocol: The bidirectional permeability of compounds across the Caco-2 cell monolayer was assessed. The Caco-2 model is a widely used in vitro model for small intestinal absorption and potential for efflux. Cell culture. Caco-2 cells were grown in DMEM supplemented with 10% fetal bovine serum (FBS), 1% Penicillin-Streptomycin and 1% MEMNEAA. The cells were incubated at 37° C., 5% CO2/95% air and saturated humidity. After reaching 80-90% confluency, the cells were gently detached with trypsin. Cells at passage 39 were seeded on the 24-well BD insert system at the density of 8×10^4 cells/cm^2 and cultured for 19 days with medium changed every 2-3 days. Measure the transepithelial electrical resistance (TEER) value of each well. The wells can be used only when their TEER values are greater than 600 Ohms/cm^2.
Transport assay. After removing the cell culture medium from the 24-well insert plate, the cells were rinsed with warm transport buffer. Appropriate dosing and receiving solutions were applied to the donor and receiver chambers to initiate the transport assay in apical to basolateral (A to B) or basolateral to apical (B to A) directions (500 and 1300 μL for apical and basolateral wells, respectively). Duplicate wells in each direction were used for the test compound and control compound. The plate was incubated in CO2 incubator at 37° C., with 5% CO2/95% air and saturated humidity without shaking. The sample after 10-minute incubation was used as the To sample, and the sample after 90-minute incubation was used as the T90 sample. To and T90 samples were collected from the donor and receiver side of each well at the designed timepoint, mixed with the transport buffer and acetonitrile/MeOH (1:1, v/v) and the internal standard for LC/MS/MS analysis. All samples were vortexed and centrifuged at 4000 rpm at 4° C. for 15 minutes, diluted with pure water and stored at 4° C. before bioanalysis by LC/MS/MS.
Sample analysis. The concentrations of test compounds and control compounds in Caco-2 cells were quantitatively determined by LC/MS/MS method after protein precipitation.
Calculations. The apparent permeability (Papp, cm/s), efflux ratio (ER) and recovery parameters were calculated for Caco-2 drug transport assay using the following equations: […]
where VR is the solution volume in the receiver chamber (0.4 mL on the apical side, 1.2 mL on the basolateral side); Area is the surface area for the insert membrane, i.e., 0.3 cm^2 for the area of the monolayer; Time is incubation time, expressed in seconds, i. e., 5400 s (90 min) for the current experiment; Co is the initial concentration of test compound or peak area ratio of control compounds in the donor chamber (M); VD is the volume in the donor chambers (0.4 mL on the apical side, 1.2 mL on the basolateral side); CD and CR are the final concentrations of test compounds or peak area ratio of control compounds in donor and receiver chambers, respectively.
Compounds with Papp<1.0 are classified as low permeability, Papp between 1-10 are classified as medium permeability, and Papp>10 are classified as high permeability. An efflux ratio (ER)>2 indicates the compounds are potential substrates for intestinal cell efflux transporters.

SMILES | Papp A→B at 90 min | Papp B→A at 90 min | efflux ratio at 90 min
CC(=O)Nc1ncnn2c([C@]3(C#N)O[C@H](COC(=O)[C@@H](N)C(C)(C)C)[C@@H](OC(=O)CC4CCCCC4)[C@H]3O)ccc12 [Compound 33, ((2R,3S,4R,5R)-5-(4-acetamidopyrrolo[2,1-f][1,2,4]triazin-7-yl)-5-cyano-3-(2-cyclohexylacetoxy)-4-hydroxytetrahydrofuran-2-yl)methyl (S)-2-amino-3,3-dimethylbutanoate] | 24.4 ×10⁻⁶ cm/s | – | –
CC(=O)OCOC(=O)Nc1ncnn2c([C@]3(C#N)O[C@H](COC(=O)[C@@H](N)C(C)(C)C)[C@@H](OC(=O)CC4CCCCC4)[C@H]3O)ccc12 [Compound 36, ((2R,3S,4R,5R)-5-(4-(((acetoxymethoxy)carbonyl)amino)pyrrolo[2,1-f][1,2,4]triazin-7-yl)-5-cyano-3-(2-cyclohexylacetoxy)-4-hydroxytetrahydrofuran-2-yl)methyl (S)-2-amino-3,3-dimethylbutanoate] | 0.93 ×10⁻⁶ cm/s | 1.15 ×10⁻⁶ cm/s | 1.24
CC(C)(C)[C@H](N)C(=O)OC[C@H]1O[C@@](C#N)(c2ccc3c(NC(=O)CC4CCCCC4)ncnn23)[C@H](O)[C@@H]1O [Compound 39, ((2R,3S,4R,5R)-5-cyano-5-(4-(2-cyclohexylacetamido)pyrrolo[2,1-f][1,2,4]triazin-7-yl)-3,4-dihydroxytetrahydrofuran-2-yl)methyl (S)-2-amino-3,3-dimethylbutanoate] | 0.72 ×10⁻⁶ cm/s | 16.9 ×10⁻⁶ cm/s | 23.4
CCC(=O)O[C@H]1[C@@H](O)[C@](C#N)(c2ccc3c(NC(=O)OCOC(=O)C(C)(C)C)ncnn23)O[C@@H]1COC(=O)[C@@H](N)C(C)(C)C [Compound 40, ((2R,3S,4R,5R)-5-cyano-4-hydroxy-5-(4-((((pivaloyloxy)methoxy)carbonyl)amino)pyrrolo[2,1-f][1,2,4]triazin-7-yl)-3-(propionyloxy)tetrahydrofuran-2-yl)methyl (S)-2-amino-3,3-dimethylbutanoate] | 0.13 ×10⁻⁶ cm/s | 4.5 ×10⁻⁶ cm/s | 34.4
CCCCCCOC(=O)Nc1ncnn2c([C@]3(C#N)O[C@H](COC(=O)[C@@H](N)C(C)(C)C)[C@@H](O)[C@H]3O)ccc12 [Compound 41, ((2R,3S,4R,5R)-5-cyano-5-(4-(((hexyloxy)carbonyl)amino)pyrrolo[2,1-f][1,2,4]triazin-7-yl)-3,4-dihydroxytetrahydrofuran-2-yl)methyl (S)-2-amino-3,3-dimethylbutanoate] | 1.41 ×10⁻⁶ cm/s | 14.6 ×10⁻⁶ cm/s | 10.4
CCCCCCOC(=O)Nc1ncnn2c([C@]3(C#N)O[C@H](COC(=O)[C@@H](N)C(C)(C)C)[C@@H](OC(=O)CC)[C@H]3O)ccc12 [Compound 42, ((2R,3S,4R,5R)-5-cyano-5-(4-(((hexyloxy)carbonyl)amino)pyrrolo[2,1-f][1,2,4]triazin-7-yl)-4-hydroxy-3-(propionyloxy)tetrahydrofuran-2-yl)methyl (S)-2-amino-3,3-dimethylbutanoate] | 4.24 ×10⁻⁶ cm/s | 3.97 ×10⁻⁶ cm/s | 0.94
CCC(=O)O[C@H]1[C@@H](O)[C@](C#N)(c2ccc3c(NC(=O)OCOC(C)=O)ncnn23)O[C@@H]1COC(=O)[C@@H](N)C(C)(C)C [Compound 43, ((2R,3S,4R,5R)-5-(4-(((acetoxymethoxy)carbonyl)amino)pyrrolo[2,1-f][1,2,4]triazin-7-yl)-5-cyano-4-hydroxy-3-(propionyloxy)tetrahydrofuran-2-yl)methyl (S)-2-amino-3,3-dimethylbutanoate] | 1.49 ×10⁻⁶ cm/s | 1.02 ×10⁻⁶ cm/s | 0.69
CC(=O)OCOC(=O)Nc1ncnn2c([C@]3(C#N)O[C@H](COC(=O)CC4CCCCC4)[C@@H](OC(=O)[C@@H](N)C(C)(C)C)[C@H]3O)ccc12 [Compound 46, (2R,3S,4R,5R)-5-(4-(((acetoxymethoxy)carbonyl)amino)pyrrolo[2,1-f][1,2,4]triazin-7-yl)-5-cyano-2-((2-cyclohexylacetoxy)methyl)-4-hydroxytetrahydrofuran-3-yl (S)-2-amino-3,3-dimethylbutanoate] | 1.45 ×10⁻⁶ cm/s | 0.79 ×10⁻⁶ cm/s | 0.54
CCCCC(=O)Nc1ncnn2c([C@]3(C#N)O[C@H](COC(=O)CC4CCC4)[C@@H](OC(=O)[C@@H](N)C(C)(C)C)[C@H]3O)ccc12 [Compound 47, (2R,3S,4R,5R)-5-cyano-2-((2-cyclobutylacetoxy)methyl)-4-hydroxy-5-(4-pentanamidopyrrolo[2,1-f][1,2,4]triazin-7-yl)tetrahydrofuran-3-yl (S)-2-amino-3,3-dimethylbutanoate] | 4.57 ×10⁻⁶ cm/s | 12.2 ×10⁻⁶ cm/s | 2.68
CCCCCC(=O)Nc1ncnn2c([C@]3(C#N)O[C@H](COC(=O)CC4CCC4)[C@@H](OC(=O)[C@@H](N)C(C)(C)C)[C@H]3O)ccc12 [Compound 48, (2R,3S,4R,5R)-5-cyano-2-((2-cyclobutylacetoxy)methyl)-5-(4-hexanamidopyrrolo[2,1-f][1,2,4]triazin-7-yl)-4-hydroxytetrahydrofuran-3-yl (S)-2-amino-3,3-dimethylbutanoate] | 2.02 ×10⁻⁶ cm/s | 4.72 ×10⁻⁶ cm/s | 2.34
CCOC(C)(C)C(=O)Nc1ncnn2c([C@]3(C#N)O[C@H](COC(=O)CC4CCC4)[C@@H](OC(=O)[C@@H](N)C(C)(C)C)[C@H]3O)ccc12 [Compound 49, (2R,3S,4R,5R)-5-cyano-2-((2-cyclobutylacetoxy)methyl)-5-(4-(2-ethoxy-2-methylpropanamido)pyrrolo[2,1-f][1,2,4]triazin-7-yl)-4-hydroxytetrahydrofuran-3-yl (S)-2-amino-3,3-dimethylbutanoate] | 6.24 ×10⁻⁶ cm/s | 5.67 ×10⁻⁶ cm/s | 0.91
CCC(CC)C(=O)Nc1ncnn2c([C@]3(C#N)O[C@H](COC(=O)CC4CCC4)[C@@H](OC(=O)[C@@H](N)C(C)(C)C)[C@H]3O)ccc12 [Compound 50, (2R,3S,4R,5R)-5-cyano-2-((2-cyclobutylacetoxy)methyl)-5-(4-(2-ethylbutanamido)pyrrolo[2,1-f][1,2,4]triazin-7-yl)-4-hydroxytetrahydrofuran-3-yl (S)-2-amino-3,3-dimethylbutanoate] | 8.66 ×10⁻⁶ cm/s | 8.25 ×10⁻⁶ cm/s | 0.95
CCCCC(=O)Nc1ncnn2c([C@]3(C#N)O[C@H](COC(=O)CC4CCCC4)[C@@H](OC(=O)[C@@H](N)C(C)(C)C)[C@H]3O)ccc12 [Compound 54, (2R,3S,4R,5R)-5-cyano-2-((2-cyclopentylacetoxy)methyl)-4-hydroxy-5-(4-pentanamidopyrrolo[2,1-f][1,2,4]triazin-7-yl)tetrahydrofuran-3-yl (S)-2-amino-3,3-dimethylbutanoate] | 3.41 ×10⁻⁶ cm/s | 5.47 ×10⁻⁶ cm/s | 1.6
CCCCCC(=O)Nc1ncnn2c([C@]3(C#N)O[C@H](COC(=O)CC4CCCC4)[C@@H](OC(=O)[C@@H](N)C(C)(C)C)[C@H]3O)ccc12 [Compound 55, (2R,3S,4R,5R)-5-cyano-2-((2-cyclopentylacetoxy)methyl)-5-(4-hexanamidopyrrolo[2,1-f][1,2,4]triazin-7-yl)-4-hydroxytetrahydrofuran-3-yl (S)-2-amino-3,3-dimethylbutanoate] | 2.74 ×10⁻⁶ cm/s | 3.63 ×10⁻⁶ cm/s | 1.33
CCC(CC)C(=O)Nc1ncnn2c([C@]3(C#N)O[C@H](COC(=O)CC4CCCC4)[C@@H](OC(=O)[C@@H](N)C(C)(C)C)[C@H]3O)ccc12 [Compound 56, (2R,3S,4R,5R)-5-cyano-2-((2-cyclopentylacetoxy)methyl)-5-(4-(2-ethylbutanamido)pyrrolo[2,1-f][1,2,4]triazin-7-yl)-4-hydroxytetrahydrofuran-3-yl (S)-2-amino-3,3-dimethylbutanoate] | 7.61 ×10⁻⁶ cm/s | 7.57 ×10⁻⁶ cm/s | 0.99
COC(C)(C)C(=O)Nc1ncnn2c([C@]3(C#N)O[C@H](COC(=O)CC4CCCC4)[C@@H](OC(=O)[C@@H](N)C(C)(C)C)[C@H]3O)ccc12 [Compound 57, (2R,3S,4R,5R)-5-cyano-2-((2-cyclopentylacetoxy)methyl)-4-hydroxy-5-(4-(2-methoxy-2-methylpropanamido)pyrrolo[2,1-f][1,2,4]triazin-7-yl)tetrahydrofuran-3-yl (S)-2-amino-3,3-dimethylbutanoate] | 16.4 ×10⁻⁶ cm/s | 10.1 ×10⁻⁶ cm/s | 0.61
